Data as given in patent US20260376293A1, “METHODS FOR STUDYING GPR158 PHARMACOLOGY AND IDENTIFICATION OF ITS LIGANDS” (UNIVERSITY OF FLORIDA RESEARCH FOUNDATION, INCORPORATED, priority 2022, published 2026).

Molecular target: T1, GPR158 (Homo sapiens, UniProt Q5T848)
T1 sequence (Q5T848 24-1215): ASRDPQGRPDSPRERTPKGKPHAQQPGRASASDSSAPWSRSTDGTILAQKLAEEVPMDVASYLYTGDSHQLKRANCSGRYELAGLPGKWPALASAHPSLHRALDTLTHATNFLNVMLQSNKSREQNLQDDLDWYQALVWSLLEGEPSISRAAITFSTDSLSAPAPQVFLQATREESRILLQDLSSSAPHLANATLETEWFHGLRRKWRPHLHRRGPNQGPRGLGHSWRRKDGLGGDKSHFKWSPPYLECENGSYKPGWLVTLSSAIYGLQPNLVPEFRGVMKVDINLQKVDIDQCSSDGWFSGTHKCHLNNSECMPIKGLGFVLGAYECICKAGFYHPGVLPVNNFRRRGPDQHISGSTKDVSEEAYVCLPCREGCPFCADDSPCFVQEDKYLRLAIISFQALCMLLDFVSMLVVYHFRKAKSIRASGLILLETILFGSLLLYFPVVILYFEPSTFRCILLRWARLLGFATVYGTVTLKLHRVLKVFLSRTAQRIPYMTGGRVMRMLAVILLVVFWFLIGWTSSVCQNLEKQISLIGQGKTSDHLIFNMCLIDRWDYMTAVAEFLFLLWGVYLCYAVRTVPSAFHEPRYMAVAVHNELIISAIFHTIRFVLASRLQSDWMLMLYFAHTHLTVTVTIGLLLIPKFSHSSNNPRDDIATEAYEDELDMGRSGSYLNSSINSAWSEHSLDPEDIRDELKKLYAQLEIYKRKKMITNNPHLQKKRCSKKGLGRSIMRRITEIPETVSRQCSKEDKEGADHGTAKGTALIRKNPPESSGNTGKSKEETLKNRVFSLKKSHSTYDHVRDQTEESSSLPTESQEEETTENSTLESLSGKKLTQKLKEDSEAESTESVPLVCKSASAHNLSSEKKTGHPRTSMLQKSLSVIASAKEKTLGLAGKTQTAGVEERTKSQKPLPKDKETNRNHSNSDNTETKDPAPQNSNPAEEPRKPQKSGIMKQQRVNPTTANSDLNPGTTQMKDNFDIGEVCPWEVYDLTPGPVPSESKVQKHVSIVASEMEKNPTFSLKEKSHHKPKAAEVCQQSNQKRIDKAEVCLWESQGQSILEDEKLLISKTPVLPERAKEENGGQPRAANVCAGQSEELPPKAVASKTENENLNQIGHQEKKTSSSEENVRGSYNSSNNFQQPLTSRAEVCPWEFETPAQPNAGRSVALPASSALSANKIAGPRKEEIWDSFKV
Experiment: Membrane radioligand saturation binding (Scatchard)
Design: expressed in transfected cells; host or cells: HEK293FT
Conditions: for Kd: Scatchard plot, HEK293 membranes expressing GPR158, n=4
Protocol: FIGS. 9A-9H. Direct interaction of glycine with GPR158 A) Schematics of assay design for detecting glycine binding to GPR158 by flow cytometry. Cells transfected with GPR158 are incubated with FITC-glycine and fluorescence labeling of cells is detected by flow cytometry. B) Representative flow cytometry histogram showing distribution of cellular populations after sorting. C) Quantification of FITC-glycine binding detected in flow cytometry binding experiments. The median of fluorescence (MFI) is quantified and plotted. Error bars are s.e.m. values, N=3, **p<0.01, ****p<0.0001, two-way ANOVA. D) Schematics of the radioligand binding assay. E) Quantification of ^3H-glycine binding to membrane expressing GPR158. Count Per minute (CPM) are measured and plotted. Data shown mean of 4 independent experiments error bars are s.e.m. values, n=4. […] Data shown mean of 4 independent experiments error bars are s.e.m. values, n=4. […] Control (thick line), GPR158 (thin line) I) Quantification of binding determined by fitting the integrated isotherm to an independent binding model.
Next, the inventors performed radioligand binding assays examining binding of [^3H]-labeled glycine to HEK293 cells expressing GPR158 (FIG. 7A). […] The inventors detected saturable [^3H]-glycine binding to membranes containing GPR158 is substantial excess over linear non-specific binding to membranes devoid of GPR158 (FIG. 9E). […]
Membrane binding assay was conducted using HEK293FT cells cultured in 6 well plates at the density of 10^6 per well and transfected with 2 μg of cDNA of GPR158 or empty pcDNA3.1+ for ctrl cells using Metafectene Pro. […] Finally, each filter was incubated in 5 ml of scintillation cocktail (Ecoscint XR, National Diagnostics), homogenized and radioactivity were measured using the liquid scintillation counter Hidex 600SL. The saturation binding curve, Scatchard plots and affinity KD and Bmax constants were calculated using Graphpad Prism 9.0 by fitting a non-linear regression binding saturation curve. […]

Kd [nM] | binding to membranes containing GPR158 (excess over linear non-specific binding to membranes devoid of GPR158) | Compound
2620 ± 1820 | saturable | NCC(=O)O [^3H-glycine, [^3H]-glycine]
~3000 | – | NCC(=O)O [glycine]
